{
  "source": "paper PMC8262325",
  "about": "“Phosphatase inhibition by LB-100 enhances BMN-111 stimulation of bone growth” (JCI Insight, 2021)",
  "key": {"[1]": {"test_system": "NPR2 guanylyl cyclase", "experiment": "cGMP production in chondrocytes of intact tibia growth plates (cGi500 FRET sensor imaging)", "format": "cell-based, mouse", "conditions": "for cGMP increase (CFP/YFP emission ratio from cGi500) on perfusion of agonist: no FGF", "protocol": "cGMP production in chondrocytes within intact growth plates was measured using tibias dissected from newborn mice (0- to 1-day-old mice) that globally expressed 1 or 2 copies of the cGi500 FRET sensor, as previously described ([27]). Tibias were dissected and cultured overnight on Millicell organotypic membranes (PICMORG50; MilliporeSigma) in BGJb medium (Thermo Fisher Scientific, catalog 12591-038) with 0.1% BSA (MP Biomedicals, catalog 103700), 100 units/mL of penicillin, and 100 μg/mL of streptomycin (Thermo Fisher Scientific, 15140-122). In preparation for imaging, each tibia was slit to remove the tissue overlying the growth plate. Where indicated, the tibia was incubated in LB-100, cantharidin, or control medium, followed by addition of FGF18 (0.5 μg/mL + 1 μg/mL heparin) or control medium containing heparin only. The tibia was then placed in a perfusion slide (ibidi USA, catalog 80186, special order with no adhesive), and the growth plate was imaged on the stage of a confocal microscope, as previously described ([27])."}, "[2]": {"test_system": "Fgfr3^Y367C/+ femurs", "experiment": "Ex vivo culture of fetal femurs, growth in length and area", "design": "species or system mouse", "conditions": "E16.5 Fgfr3^Y367C/+ femurs, 6-day culture; LB-100 10 μM, BMN-111 0.1 μM", "protocol": "Femurs from E16.5 embryos were cultured ex vivo, as described previously ([32], [47]). The left femur was cultured in the presence of LB-100 (10 μM), BMN-111 (0.1 μM), or LB-100 (10 μM) + BMN-111 (0.1 μM) and was compared with the vehicle-treated right femur. The bone’s length was measured on day 0 (D0) and D6. Images were captured with an Olympus SZX12 stereo microscope and quantified using cellSens software (Olympus). The results were expressed as the increase in femur length or area (D6 – D0) in the presence or absence of LB-100, BMN-111, or LB-100 + BMN-111. Bone length and area were measured as shown in Supplemental Figure 5. To generate the graphs shown in Figure 3, the length or 2-dimensional area on D0 was subtracted from the length or area on D6 to calculate the amount of growth. These measurements of growth in drug-treated bones were divided by the mean values from corresponding measurements of control (vehicle-treated) bones; the graphs show the ratio of treated/control growth."}, "[3]": {"target": "T1, recombinant PPP1CA (PPP1C) (Homo sapiens, UniProt P62136)", "T1 construct": "made in house; host or cells: E. coli BL-21", "experiment": "Phosphatase activity inhibition assay (DiFMUP or [32P]-phosphohistone substrate)", "format": "biochemical", "protocol": "The coding sequence of human PPP1CA was expressed as a maltose binding protein fusion in a BL-21 strain of E. coli and purified as previously described ([55]). Phosphohistone phosphatase assays were performed as previously described ([55], [56]). Briefly, LB-100, at the indicated concentrations, or vehicle control (H2O) was added to enzyme/buffer aliquots about 10 minutes prior to starting assays by the addition of [^32P]-phosphohistone substrate (to a final assay concentration of 300 nM incorporated phosphate). [^32P]-phosphohistone was prepared by the phosphorylation of bovine brain histone (MilliporeSigma, type-2AS) with cAMP-dependent protein kinase (PKA) in the presence of cAMP and [^32P]-ATP using established methods ([56], [57]). Phosphatase activity was measured by the quantitation of [^32P]-labeled orthophosphate liberated from the substrate using established protocols ([57]). 6,8-Difluoro-4-methylumbelliferyl phosphate–based (DiFMUP-based) inhibition assays were conducted as described ([56], [57]), in a 96-well format using DiFMUP (Invitrogen) (100 μM final assay concentration). IC50 values were calculated from a 10-point concentration/dose response curve by a 4-parameter logistic fit of the data, using 3–8 replicates per concentration."}, "[4]": {"test_system": "PPP5C", "design": "method as in PMID 30679389", "conditions": "reported previously, read-out: Phosphatase IC50 mean ± SE, PPP5C, cited from earlier work"}, "[5]": {"test_system": "PPP2C", "design": "method as in PMID 30679389", "conditions": "reported previously, read-out: Phosphatase IC50 mean ± SE, PPP2C, cited from earlier work"}, "[6]": {"test_system": "NPR2", "experiment": "NPR2 phosphorylation in primary rib chondrocyte cultures (Phos-tag gel electrophoresis, Western blot)", "format": "cell-based, mouse", "conditions": "for NPR2 dephosphorylation in response to FGF: then FGF18 0.5 μg/mL 10 minutes", "protocol": "Rib cages were dissected from newborn mice (0–2 days old) and trimmed to remove the skin, spinal cord, and soft tissue around the sternum and ribs. Nonchondrocyte tissue was digested away by incubating the rib cages in 2 mg/mL pronase (Roche, catalog 10165921001) in PBS for 1 hour in a shaking water bath at 37°C and was then incubated in 3 mg/mL collagenase D (Roche, catalog 11088866001) in medium for 1 hour. After washing, the rib cages were transferred to a dish with fresh collagenase D and incubated for 5–6 hours, with trituration at 2 hours, to release the chondrocytes. The isolated cells were passed through a 40 μm nylon cell strainer (Corning, catalog 431750), resuspended in DMEM/F12 medium (Thermo Fisher Scientific, catalog 11320-033) with 10% FBS (Thermo Fisher Scientific, catalog 10082-139), 100 units/mL of penicillin, and 100 μg/mL of streptomycin. The cells were plated in 35 mm tissue culture dishes, at a density corresponding to 1 newborn mouse per dish, and cultured for 3 days, at which point the cells were approximately 75%–90% confluent. They were then washed with PBS and incubated in serum-free medium for 18 hours. The cells were then incubated in LB-100 (10 μM), or control medium, followed by addition of FGF18 (0.5 μg/mL + 1 μg/mL heparin) or control medium containing heparin only.\nAt end of the incubation period, dishes were washed in PBS, and cells were lysed in 250 μL of 1% SDS containing 10 mM sodium fluoride, 1 μM microcystin-LR (Cayman Chemical, catalog 10007188), and protease inhibitor cocktail (Roche, catalog 04 693 159 001). Protein content was determined by a BCA assay (Pierce, catalog 23225). The protein yield per newborn mouse was approximately 200–300 μg.\nProteins were separated in a Phos-tag–containing gel, as previously described ([58]), except that chondrocyte lysates (30 μg protein) were used without immunoprecipitation. Phos-tag and protein size markers were obtained from Fujifilm Wako Pure Chemical (catalogs AAL-107 and 230-02461, respectively). For these studies, we used mice with HA-tagged NPR2 ([43]), and blots were probed with an antibody against the HA tag (Cell Signaling Technology, catalog 2367, 1:1000 dilution). The specificity of this antibody is validated in Supplemental Figure 3. Note that molecular weight markers are only approximate for Phos-tag gels."}, "[7]": {"test_system": "NPR2 guanylyl cyclase", "design": "method as in PMID 29199951", "conditions": "100 μM; cited from earlier work"}, "[8]": {"test_system": "Fgfr3^Y367C/+ mice", "design": "method as in PMID 23200862", "conditions": "cited from earlier work"}, "[9]": {"test_system": "children with ACH", "design": "method as in PMID 31269546, PMID 32891212", "conditions": "children 5–14 years of age with ACH, up to 42 months, phase 2 and 3 data; cited from earlier work"}, "[10]": {"test_system": "growth plate chondrocytes of Fgfr3^Y367C/+ femurs", "experiment": "Histology of growth plates of ex vivo cultured femurs (HES, COLX immunostaining)", "design": "species or system mouse", "conditions": "6-day culture, LB-100 10 μM, BMN-111 0.1 μM", "excerpt": "After a 6-day culture period, fetal femur (E16.5) explants were fixed in 4% paraformaldehyde, decalcified with EDTA (0.4M), and embedded in paraffin. Serial 5 μm sections were stained with hematoxylin‑eosin‑safran (HES) reagent, using standard protocols. For immunohistochemical assessment, sections were labeled with the following antibodies and a Dako Envision Kit: anti-COLX (BIOCYC, catalog N.2031501005; 1:50 dilution), and anti–phosphorylated ERK1‑2 ([…]) (Cell Signaling Technology, catalog 4370; 1:100 dilution). Images were captured with an Olympus PD70-IX2-UCB microscope and quantified using cellSens software.\nMean areas of individual hypertrophic chondrocytes were measured from COLX-labeled sections, within a 166 μm wide × 76 μm high box positioned 50 μm from mineralization front (Supplemental Figure 6). The measurements were made manually using Fiji software and the freehand selection tool. […] We measured the total area occupied by chondrocytes within the whole growth plate and the area occupied by COLX^+ chondrocytes. The area for proliferating chondrocytes was calculated by subtracting the COLX^+ area from the whole growth plate area."}, "[11]": {"conditions": "substrate [32P]-labeled phosphohistone"}},
  "note": "Where two headings read alike, the source gives them in different places. Bridges are numbered along the chain shown (N, C = ends).",
  "data": [
    {"molecule": "CCN(CC)/[N+]([O-])=N/O.CCNCC", "note": "[DEA/NO]", "values": [
      {"measurement": "cGMP increase (CFP/YFP emission ratio from cGi500) on perfusion of agonist", "setting": "[1]; 10 μM perfused across growth plate of newborn mouse tibia", "value": "did not increase cGMP"}
    ]},
    {"molecule": "CN1CCN(C(=O)C2C3CCC(O3)C2C(=O)O)CC1", "note": "(stereo not shown) [LB-100, 3-[4-methylpiperazine-1-carbonyl]-7-oxabicyclo[2.2.1]heptane-2-carboxylic acid]", "values": [
      {"measurement": "Increase in bone length, ratio treated/vehicle-treated control", "setting": "[2]", "value": 1.30},
      {"measurement": "Increase of total bone and cartilage area, growth ratio treated/control", "setting": "[2]", "value": 1.40},
      {"measurement": "IC50", "setting": "[3]; 2 established assays with different substrates, read-out: IC50 for inhibition of PPP1C", "value": "< 2000", "unit": "nM"},
      {"measurement": "IC50", "setting": "[3]; substrate DiFMUP, read-out: Phosphatase IC50 mean ± SE, PPP1C", "value": "1800 ± 21", "unit": "nM"},
      {"measurement": "IC50", "setting": "[3]; substrate [32P]-labeled phosphohistone, read-out: Phosphatase IC50 mean ± SE, PPP1C", "value": "1680 ± 130", "unit": "nM"},
      {"measurement": "CNP-induced cGMP increase in FGF-treated tibias", "setting": "[1]; 1 μM preincubation 60 minutes before FGF18 (80 minutes)", "value": "no effect"},
      {"measurement": "Effectiveness in counteracting inactivation of NPR2 by FGF, compared with cantharidin", "setting": "[1]; 5 μM LB-100 equivalent to 10 μM cantharidin", "value": "more effective than cantharidin"},
      {"measurement": "CNP-induced cGMP increase in FGF-treated tibias", "setting": "[1]; 5 μM preincubation 60 minutes before FGF18 (80 minutes)", "value": "enhanced"},
      {"measurement": "CNP-induced cGMP increase in FGF-treated tibias", "setting": "[1]; 10 μM preincubation 60 minutes before FGF18 (80 minutes)", "value": "enhanced"},
      {"measurement": "Chondrocyte morphology in the live growth plate", "setting": "[1]; 10 μM, 2-hour incubation", "value": "no visible change in chondrocyte morphology"},
      {"measurement": "IC50", "setting": "[4]; substrate DiFMUP", "value": "1.82 ± 0.093", "unit": "µM"},
      {"measurement": "IC50", "setting": "[4]; [11]", "value": "4.9 ± 0.29", "unit": "µM"},
      {"measurement": "IC50", "setting": "[5]; substrate DiFMUP", "value": "390 ± 13", "unit": "nM"},
      {"measurement": "IC50", "setting": "[5]; [11]", "value": "640 ± 37", "unit": "nM"},
      {"measurement": "NPR2 dephosphorylation in response to FGF", "setting": "[6]; 10 μM preincubation 1 hour with BMN-111 0.1 μM present", "value": "counteracts the FGF-induced dephosphorylation"},
      {"measurement": "NPR2 dephosphorylation in response to FGF", "setting": "[6]; 10 μM preincubation 1 hour", "value": "only partial"}
    ]},
    {"molecule": "C[C@@]12C(=O)OC(=O)[C@]1(C)[C@H]1CC[C@@H]2O1", "note": "[cantharidin, Cantharidin]", "values": [
      {"measurement": "Effect on inactivation of NPR2 by FGF in growth plate chondrocytes", "setting": "[7]", "value": "inhibits the inactivation of NPR2"}
    ]},
    {"molecule": "(Cyc[23,39])H2N-PGQEHPNARKYKGANKKGLSKGCFGLKLDRIGSMSGLGC-OH (H-PGQEHPNARKYKGANKKGLSKGCFGLKLDRIGSMSGLGC-OH; disulfide 23-39) [BMN-111, protease-resistant CNP analog, NPR2 agonist]", "values": [
      {"measurement": "Increase in bone length, ratio treated/vehicle-treated control", "setting": "[2]", "value": 1.78},
      {"measurement": "Increase of total bone and cartilage area, growth ratio treated/control", "setting": "[2]", "value": 1.51},
      {"measurement": "Bone growth in mouse model of ACH", "setting": "[8]", "value": "increases bone growth"},
      {"measurement": "NPR2 phosphorylation", "setting": "[6]; 0.1 μM for 1 hour, independently of FGF treatment", "value": "some reduction in NPR2 phosphorylation"},
      {"measurement": "Annualized growth velocity", "setting": "[9]", "value": "sustained increase in annualized growth velocity"},
      {"measurement": "Size of Fgfr3^Y367C/+ hypertrophic chondrocytes", "setting": "[10]; proximal growth plate", "value": "increased the size"},
      {"measurement": "Increase of total proliferative growth plate area of the femur over vehicle", "setting": "[10]; proximal plus distal growth plates", "value": 20, "unit": "%"}
    ]},
    {"molecule": "ANP: A-type natriuretic peptide, which activates the NPR1 guanylyl cyclase", "values": [
      {"measurement": "cGMP increase (CFP/YFP emission ratio from cGi500) on perfusion of agonist", "setting": "[1]; 0.1 μM agonist perfused across growth plate of newborn mouse tibia", "value": "did not increase cGMP"}
    ]},
    {"molecule": "FGF18: fibroblast growth factor 18 used to activate FGF receptor", "values": [
      {"measurement": "Effect on cGMP increase in response to CNP perfusion", "setting": "[1]; pretreatment 0.5 μg/mL FGF18 + 1 μg/mL heparin for 80 minutes, 0.1 μM CNP", "value": "suppressed the cGMP increase"},
      {"measurement": "NPR2 phosphorylation", "setting": "[6]; FGF18 0.5 μg/mL for 10 minutes", "value": "decrease in NPR2 phosphorylation"}
    ]}
  ]
}
